# Experimental data: US10562909B2, “Fused quadracyclic compounds, compositions and uses thereof” (Tabomedex Biosciences, LLC, priority 2016, dated 2020)
# Biological target: MAPKAPK2 (Homo sapiens, UniProt P49137)
# Test: MK2 Enzymatic Assay
# Assay type: biochemical
# Conditions: 0.5 nM MAPKAPK2, 3 μM ATP, 2 μM Ser/Thr4 peptide, 23° C., values given as concentration bins
# Method in brief: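 MAPKAPK2 (2× stock 1 nM) and peptide substrate (2× 4 μM) were preincubated 20 min, then started with ATP (2× stock 6 μM) for 120 min. After 120 min development, coumarin/fluorescein emission ratio gave percent phosphorylation against 0% and 100% phosphopeptide controls.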
# Sequence of MAPKAPK2 (P49137 whole entry, species assumed): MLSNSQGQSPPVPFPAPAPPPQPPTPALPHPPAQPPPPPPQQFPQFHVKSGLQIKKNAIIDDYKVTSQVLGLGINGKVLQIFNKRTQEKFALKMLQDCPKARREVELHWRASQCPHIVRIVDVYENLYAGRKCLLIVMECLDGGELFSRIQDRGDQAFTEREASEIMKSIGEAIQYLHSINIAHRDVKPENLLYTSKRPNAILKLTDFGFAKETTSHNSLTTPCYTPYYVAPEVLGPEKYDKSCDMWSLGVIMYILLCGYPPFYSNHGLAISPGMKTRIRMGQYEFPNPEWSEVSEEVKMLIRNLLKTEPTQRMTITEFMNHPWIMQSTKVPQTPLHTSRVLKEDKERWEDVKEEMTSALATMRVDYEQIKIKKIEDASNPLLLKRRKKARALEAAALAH
row,IC50,SMILES
1,< 50 nM,"C[C@H](CO)NC[C@H]1CCN(c2ccc3c(c2)Cn2cc(-c4ccc(F)cc4)cc2-c2nccn2-3)C1 [Compound 355, (R)-2-((((R)-1-(12-(4-fluorophenyl)-9H-benzo[e]imidazo[2,1-c]pyrrolo[1,2-a][1,4]diazepin-7-yl)pyrrolidin-3-yl)methyl)amino)propan-1-ol]"
2,< 50 nM,"CN(C)C[C@H]1CCN(c2ccc3c(c2)Cn2cc(-c4ccc(C#N)cc4)cc2-c2ncnn2-3)C1 [Compound 255, (R)-4-(7-(3-((dimethylamino)methyl)pyrrolidin-1-yl)-9H-benzo[e]pyrrolo[1,2-a][1,2,4]riazolo[5,1-c][1,4]diazepin-12-yl)benzonitrile]"
3,< 50 nM,"CNCc1cnc2n1-c1ccc(N3CC[C@@H](N(C)C)C3)cc1Cn1cc(-c3ccc(C#N)cc3)cc1-2 [Compound 276, 4-(7-((R)-3-(dimethylamino)pyrrolidin-1-yl)-3-((methylamino)methyl)-9H-benzo[e]imidazo[2,1-c]pyrrolo[1,2-a][1,4]diazepin-12-yl)benzonitrile]"
4,50 to 100 nM,"CNCC1CN(c2ccc3c(c2)Cn2cc(-c4ccc(C#N)cc4)cc2-c2ncnn2-3)C1 [Compound 250, 4-(7-(3-((methylamino)methyl)azetidin-1-yl)-9H-benzo[e]pyrrolo[1,2-a][1,2,4]triazolo[5,1-c] [1,4]diazepin-12-yl)benzonitrile]"
5,< 50 nM,"CN1CC2(CCN(c3ccc4c(n3)Cn3cc(-c5ccc(F)cc5)cc3-c3nccn3-4)C2)C1 [Compound 441, 12-(4-fluorophenyl)-7-(2-methyl-2,6-diazaspiro[3.4]octan-6-yl)-9H-imidazo[2,1-c]pyrido[3,2-e]pyrrolo[1,2-a][1,4]diazepine]"
6,50 to 100 nM,"CN(C)[C@@H]1CCN(c2ccc3c(c2)Cn2cc(-c4ccc(C#N)cc4)cc2-c2ncc(CN)n2-3)C1 [Compound 277, 4-(3-(aminomethyl)-7-((R)-3-(dimethylamino)pyrrolidin-1-yl)-9H-benzo[e]imidazo[2,1-c]pyrrolo[1,2-a][1,4]diazepin-12-yl)benzonitrile]"
7,< 50 nM,"N#Cc1ccc(-c2cc3n(c2)Cc2nc(N4CCC5(CNC5)C4)ccc2-n2ccnc2-3)cc1 [Compound 310, 4-(7-(2,6-diazaspiro[3.4]octan-6-yl)-9H-imidazo[2,1-c]pyrido[3,2-e]pyrrolo[1,2-a][1,4]diazepin-12-yl)benzonitrile]"
8,< 50 nM,"CN(C)C[C@H]1CN(c2ccc3c(c2)Cn2cc(-c4ccc(F)cc4)cc2-c2ncnn2-3)C[C@H]1F [Compound 498, 1-((3S,4S)-4-fluoro-1-(12-(4-fluorophenyl)-9H-benzo[e]pyrrolo[1,2-a][1,2,4]triazolo[5,1-c][1,4]diazepin-7-yl)pyrrolidin-3-yl)-N,N-dimethylmethanamine]"
9,< 50 nM,"CN(C)CCC1CCN(c2ccc3c(c2)Cn2cc(-c4ccc(F)cc4)cc2-c2nccn2-3)C1 (centres unmarked) [Compound 488, 2-(1-(12-(4-fluorophenyl)-9H-benzo[e]imidazo[2,1-c]pyrrolo[1,2-a][1,4]diazepin-7-yl)pyrrolidin-3-yl)-N,N-dimethylethanamine]"
10,< 50 nM,"Fc1ccc(-c2cc3n(c2)Cc2cc(N4CCC5(C4)CN(C4CCCC4)C5)ccc2-n2ccnc2-3)cc1 [Compound 375, 7-(2-cyclopentyl-2,6-diazaspiro[3.4]octan-6-yl)-12-(4-fluorophenyl)-9H-benzo[e]imidazo[2,1-c]pyrrolo[1,2-a][1,4]diazepine]"
11,< 50 nM,"N#Cc1ccc(-c2cc3n(c2)Cc2cc(N4C[C@@H](F)[C@@H](N)C4)ccc2-n2cnnc2-3)cc1 (racemic) [Compound 76, 4-(7-(cis-3-amino-4-fluoropyrrolidin-1-yl)-9H-benzo[e]pyrrolo[1,2-a][1,2,4]triazolo[3,4-c][1,4]diazepin-12-yl)benzonitrile]"
12,100 to 200 nM,"CN(C)[C@H]1CCN(c2ccc3c(c2)Cn2cc(-c4ccc(F)cc4F)cc2-c2nncn2-3)C1 [Compound 449, (S)-1-(12-(2,4-difluorophenyl)-9H-benzo[e]pyrrolo[1,2-a][1,2,4]triazolo[3,4-c][1,4]diazepin-7-yl)-N,N-dimethylpyrrolidin-3-amine]"
13,200 to 1000 nM,"Fc1ccc(-c2cc3n(c2)Cc2cc(N4CC[C@@H](CNCC(F)F)C4)ccc2-n2ccnc2-3)cc1 [Compound 465, (S)-2,2-difluoro-N-((1-(12-(4-fluorophenyl)-9H-benzo[e]imidazo[2,1-c]pyrrolo[1,2-a][1,4]diazepin-7-yl)pyrrolidin-3-yl)methyl)ethanamine]"
14,100 to 200 nM,"CN1CC2(CCN(c3ccc4c(c3)Cn3c(cc(-c5ccc(C#N)cc5)c3Cl)-c3nncn3-4)C2)C1 [Compound 168, 4-(11-chloro-7-(2-methyl-2,6-diazaspiro[3.4]octan-6-yl)-9H-benzo[e]pyrrolo[1,2-a][1,2,4]triazolo[3,4-c][1,4]diazepin-12-yl)benzonitrile]"
15,100 to 200 nM,"CN(C)C1CCN(c2cc3c(cn2)-n2cnnc2-c2cc(-c4ccc(C#N)cc4)cn2C3)CC1 [Compound 321, 4-(7-(4-(dimethylamino)piperidin-1-yl)-9H-pyrido[3,4-e]pyrrolo[1,2-a][1,2,4]triazolo[3,4-c][1,4]diazepin-12-yl)benzonitrile]"
16,< 50 nM,"CN1CC2(CCN(c3ccc4c(c3)Cn3cc(-c5ccc(F)cc5)cc3-c3nncn3-4)C2)C1 [Compound 332, 12-(4-fluorophenyl)-7-(2-methyl-2,6-diazaspiro[3.4]octan-6-yl)-9H-benzo[e]pyrrolo[1,2-a] [1,2,4]triazolo[3,4-c][1,4]diazepine]"
17,< 50 nM,"CN(C)[C@@H]1CCN(c2ccc3c(c2)Cn2cc(-c4ccc(F)cc4)cc2-c2nccn2-3)C1 [Compound 379, (R)-1-(12-(4-fluorophenyl)-9H-benzo[e]imidazo[2,1-c]pyrrolo[1,2-a][1,4]diazepin-7-yl)-N,N-dimethylpyrrolidin-3-amine]"
18,< 50 nM,"CN(C)C[C@H]1CN(c2ccc3c(c2)Cn2cc(-c4ccc(F)cc4)cc2-c2ncnn2-3)C[C@H]1F (relative stereo) [Compound 502, 1-(cis-4-fluoro-1-(12-(4-fluorophenyl)-9H-benzo[e]pyrrolo[1,2-a][1,2,4]triazolo[5,1-c][1,4]diazepin-7-yl)pyrrolidin-3-yl)-N,N-dimethylmethanamine]"
19,< 50 nM,"C[C@H](CO)NC[C@@H]1CCN(c2ccc3c(c2)Cn2cc(-c4ccc(F)cc4)cc2-c2nccn2-3)C1 [Compound 354, (R)-2-((((S)-1-(12-(4-fluorophenyl)-9H-benzo[e]imidazo[2,1-c]pyrrolo[1,2-a][1,4]diazepin-7-yl)pyrrolidin-3-yl)methyl)amino)propan-1-ol]"
20,< 50 nM,"C[C@@H](CO)NC[C@H]1CCN(c2ccc3c(n2)Cn2cc(-c4ccc(F)cc4)cc2-c2nccn2-3)C1 [Compound 437, (S)-2-((((R)-1-(12-(4-fluorophenyl)-9H-imidazo[2,1-c]pyrido[3,2-e]pyrrolo[1,2-a][1,4]diazepin-7-yl)pyrrolidin-3-yl)methyl)amino)propan-1-ol]"
21,< 50 nM,"CNC[C@@H]1CCN(c2ccc3c(c2)Cn2c(cc(-c4ccc(C#N)cc4)c2Cl)-c2nncn2-3)C1 [Compound 173, (S)-4-(11-chloro-7-(3-((methylamino)methyl)pyrrolidin-1-yl)-9H-benzo[e]pyrrolo[1,2-a][1,2,4]triazolo[3,4-c][1,4]diazepin-12-yl)benzonitrile]"
22,< 50 nM,"CN(C)C[C@H]1CN(c2ccc3c(n2)Cn2cc(-c4ccc(F)cc4)cc2-c2nccn2-3)C[C@@H]1O [Compound 435, (3R,4S)-4-((dimethylamino)methyl)-1-(12-(4-fluorophenyl)-9H-imidazo[2,1-c]pyrido[3,2-e]pyrrolo[1,2-a][1,4]diazepin-7-yl)pyrrolidin-3-ol]"
23,100 to 200 nM,"CN(C)C[C@H]1CN(c2ccc3c(c2)Cn2cc(-c4ccc(F)cc4)cc2-c2ncnn2-3)C[C@H]1O [Compound 415, (3S,4S)-4-((dimethylamino)methyl)-1-(12-(4-fluorophenyl)-9H-benzo[e]pyrrolo[1,2-a][1,2,4]triazolo[5,1-c][1,4]diazepin-7-yl)pyrrolidin-3-ol]"
24,< 50 nM,"CN(C)C[C@H]1CN(c2ccc3c(n2)Cn2cc(-c4ccc(F)cc4)cc2-c2ncnn2-3)C[C@H]1O [Compound 429, (3S,4S)-4-((dimethylamino)methyl)-1-(12-(4-fluorophenyl)-9H-imidazo[2,1-c]pyrido[3,2-e]pyrrolo[1,2-a][1,4]diazepin-7-yl)pyrrolidin-3-ol]"
25,< 50 nM,"CNC[C@H]1CCN(c2ccc3c(c2)Cn2cc(-c4ccc(F)cc4)cc2-c2nccn2-3)C1 [Compound 348, (R)-1-(1-(12-(4-fluorophenyl)-9H-benzo[e]imidazo[2,1-c]pyrrolo[1,2-a][1,4]diazepin-7-yl)pyrrolidin-3-yl)-N-methylmethanamine]"
26,< 50 nM,"CN1CC2(CCN(c3ccc4c(c3)Cn3cc(-c5ccc(C#N)cc5)cc3-c3nccn3-4)C2)C1 [Compound 125, 4-(7-(2-methyl-2,6-diazaspiro[3.4]octan-6-yl)-9H-benzo[e]imidazo[2,1-c]pyrrolo[1,2-a][1,4]diazepin-12-yl)benzonitrile]"
27,< 50 nM,"CN(C)C[C@H]1CN(c2ccc3c(c2)Cn2cc(-c4ccc(C#N)cc4)cc2-c2nncn2-3)C[C@@H]1O [Compound 109, 4-(7-((3S,4R)-3-((dimethylamino)methyl)-4-hydroxypyrrolidin-1-yl)-9H-benzo[e]pyrrolo[1,2-a][1,2,4]triazolo[3,4-c][1,4]diazepin-12-yl)benzonitrile]"
28,< 50 nM,"CN(C)C[C@@H]1CN(c2ccc3c(c2)Cn2cc(-c4ccc(F)cc4)cc2-c2cnnn2-3)C[C@H]1O [Compound 511, (3S,4R)-4-((dimethylamino)methyl)-1-(5-(4-fluorophenyl)-8H-benzo[e]pyrrolo[1,2-a][1,2,3]triazolo[5,1-c][1,4]diazepin-10-yl)pyrrolidin-3-ol]"
29,100 to 200 nM,"CN(C)C1CN(c2ccc3c(c2)Cn2cc(-c4ccc(C#N)cc4)cc2-c2nnnn2-3)C1 [Compound 235, 4-(7-(3-(dimethylamino)azetidin-1-yl)-9H-benzo[e]pyrrolo[1,2-a]tetrazolo[5,1-c][1,4]diazepin-12-yl)benzonitrile]"
